A short description of series [1]: Plasma pharmacokinetics of MGX and FMGX (noncompartmental analysis), phase 1 fixed-sequence DDI study with itraconazole or rifampin. In kind it is in vivo, human. The settings on record: for FMGX AUC(0-23) / FMGX AUC(0-t) / FMGX Cmax / FMGX Tmax / FMGX AUC(inf) / FMGX CL / FMGX Vz / FMGX t½ / FMGX λz: D1; for FMGX AUC(0-23) / FMGX AUC(0-t) / FMGX Cmax / FMGX AUC(inf) / FMGX CL / FMGX Vz / FMGX t½ / FMGX λz: geometric mean (geometric %CV); for FMGX Tmax: median (range). As to the method:
In cohort 1, MGX plasma samples were collected at specified time points daily on days 1–4, once every 2 days on days 6–14, daily for 3 days from days 18 to 20, once every 2 days from days 21 to 29, and then on day 31, while itraconazole samples were collected at specified time points on days 19, 25, and 31. […] PK parameters were calculated using noncompartmental analysis from the plasma concentration-time data for MGX and FMGX. Primary PK parameters were maximum observed plasma concentration (Cmax), AUC from time 0 to infinity (AUC0-inf), and AUC up to time t (AUC0-t, where t was the last time point with concentrations above the lower limit of quantitation). […] Secondary PK parameters were time to attain Cmax (Tmax), AUC from time 0 to 23 hours (AUC0-23), terminal elimination half-life after the last dosing on the day (t1/2), clearance (CL), volume of distribution at terminal phase (Vz), and terminal phase rate constant after the last dosing on the day (λz).

Series [2] in a line: Safety and tolerability (adverse events, laboratory findings), phase 1 DDI study. As to the method:
Participants were also excluded if they used any prescription medication (except female contraception) and any over-the-counter medications/supplements within 14 days and 7 days prior to the first admission, respectively.
In both cohorts, FMGX was administered as a 3-hour IV infusion twice a day (BID, dosing interval: […]). All participants received FMGX on 2 days, once before a washout period (minimum 14 days) and once after the washout. […] The study consisted of a screening phase [days −28 to −1 (admission)], assessment phase (cohort 1: days −1 to 31; cohort 2: days −1 to 34), and follow-up phase (cohort 1: day 38 ± 1; cohort 2: day 41 ± 1). Participants in both cohorts had in-clinic stays for two periods: cohort 1 [days −1 to 4 (morning) and days 17 to 31 (morning)], cohort 2 [days −1 to 4 (morning) and day 23 to 34 (morning)], and at home dosing for two periods: cohort 1 (days 15 to 17) and cohort 2 (days 15 to 23).
Safety was assessed by evaluating the frequency of adverse events (AEs) recorded from the first admission (day −1) until completion of the follow-up visit (day 38 ± 1 in cohort 1; day 41 ± 1 in cohort 2). All AEs were classified per the Medical Dictionary for Regulatory Activities (MedDRA v22.1). The investigator ascertained relatedness to study the drug administration.
An analysis of variance (ANOVA) model was used to analyze the natural log-transformed primary PK parameters while the secondary PK parameters were not subjected to inferential statistical analysis. For each cohort, 18 participants were included to ensure at least 16 completed all assessments, as this was considered adequate to evaluate PK, safety, and tolerability. Thus, a sample size of 36 was considered sufficient to assess primary and secondary objectives. […] The PK analysis set included all participants who received at least one dose of FMGX and had adequate plasma concentration data available for PK analysis.

Series [3] concerns Candida, Coccidioides, Cryptococcus, and Aspergillus spp. As to conditions: cited from earlier work.
For a further series, the system named is CYP450 enzymes. The settings on record: cited from earlier work.
A further series relates to human CYPs. The settings on record: concentrations up to 30 µM in vitro; ref data on file; cited from earlier work.
Setting [4] is: FMGX only 500 mg BID IV, Cohort 1, n = 16.
The mark [5] stands for this setting: FMGX only 500 mg BID IV, Cohort 1, n=12.
Setting [6] is: FMGX only 1000 mg BID IV, Cohort 2, n = 17.
The mark [7] stands for this setting: one participant, cohort 1, considered related to itraconazole, days 31 through 70.

Marks after values point to notes of the source that are not given here.

As for `Nc1c(-c2cc(Cc3ccc(COc4ccccn4)cc3)no2)ccc[n+]1COP(=O)([O-])O` [FMGX, Fosmanogepix], in series [1] (setting [4]), the “FMGX AUC(0-23)” value is listed as 9945 (16.5) hr×ng/mL, the “FMGX AUC(0-t)” value was 9945 (16.5) hr×ng/mL, the “FMGX Cmax” value is reported as 1520 (18.6) ng/mL and the “FMGX Tmax” value was 10.5 (0.50 – 12.0) hr. In series [1] (setting [5]), the “FMGX AUC(inf)” value is 10191 (18.3)** hr×ng/mL, the “FMGX CL” value is 98128 (18.3)** mL/hr, the “FMGX Vz” value is on record as 53.6 (22.5)** L and the “FMGX t½” value was 0.38 (14.4)** hr. Besides, in series [1] (setting [5]), the “FMGX λz” value is 1.83 (14.4)** 1/hr. In series [1] (setting [6]), the “FMGX AUC(0-23)” value is 18162 (22.3) hr×ng/mL, the “FMGX AUC(0-t)” value is on record as 18162 (22.3) hr×ng/mL, the “FMGX AUC(inf)” value is 18163 (22.3) hr×ng/mL and the “FMGX CL” value was 110117 (22.3) mL/hr. In series [1] (setting [6]), the “FMGX Cmax” value is listed as 2974 (24.2) ng/mL, the “FMGX Vz” value was 69.4 (30.4) L, the “FMGX t½” value is 0.44 (18.4) hr and the “FMGX λz” value is on record as 1.59 (18.4) 1/hr. The “FMGX Tmax” value in series [1] (setting [6]) is given as 9.50 (0.50 – 12.1) hr. Moreover, in series [1] (both cohorts), the “Effect of CYP3A4 inhibition or pan-CYP induction on exposure to FMGX” value was “did not affect exposure”. The “FMGX-related AEs / all events” value in series [2] (Cohort 1, FMGX 500 mg) is reported as 4/43. In addition, the “FMGX-related AEs / all events” value in series [2] (Cohort 2, FMGX 1,000 mg) is listed as 33/145. In series [2] (FMGX 500 and 1,000 mg, alone or with itraconazole 200 mg or rifampin 600 mg), the Safety and tolerability result was “safe and well tolerated”. For the same compound, in series [2] (both cohorts, N = 36), the “Deaths, serious AEs (SAEs), FMGX-related withdrawals” value is recorded as “No deaths, serious AEs (SAEs), or FMGX-related withdrawals” and the “Participants reporting FMGX-related AEs, n (%)” value is given as 12 (33.3%). In series [2] (of all 188 events, both cohorts), the “AEs considered related to FMGX, number of events” value is recorded as 37. The “Efficacy in mouse models of invasive pulmonary and disseminated fungal infections” value in series [3] is on record as “demonstrated efficacy”. Besides, the “Substrate for CYP450 enzymes” value in the series with CYP450 enzymes is recorded as “not a substrate”. The “Reversible or time-dependent inhibition of human CYPs” value in the series with human CYPs is “No reversible or time-dependent inhibition”.

Regarding `CCC(C)n1ncn(-c2ccc(N3CCN(c4ccc(OCC5COC(Cn6cncn6)(c6ccc(Cl)cc6Cl)O5)cc4)CC3)cc2)c1=O` (stereo not shown) [ITR, itraconazole, reference compound], in series [2] (setting [7]), the “Increase in alanine transaminase (ALT)” value is on record as ~ 8 × ULN and the “Increase in aspartate transaminase (AST)” value is listed as ~ 11 × ULN. The “Increase in lactate dehydrogenase (LDH)” value in series [2] (one participant, cohort 1, day 31 to day 63) is ~ 2 × ULN.
